Measured values as given in US10344034B2, “Pyrazolopyrimidone or Pyrrolotriazone derivatives, method of preparing same, and pharmaceutical applications thereof” (Shanghai Hengrui Pharmaceutical Co., Ltd., priority 2013, dated 2019).
Read-outs that look alike come from different tables or passages of the source.

Legend:
rabbit GnRHr = rabbit GnRHr (Oryctolagus cuniculus, UniProt Q5U7L3); experiment: Rabbit GnRHr inhibitory activity assay, rabbit GnRHr/CHO stably transfected cell lines; assay type: cell-based; conditions: rabbit GnRHr/CHO cells, GnRH polypeptide stimulant, Fluo-4
Chain of rabbit GnRHr (Q5U7L3 1-328): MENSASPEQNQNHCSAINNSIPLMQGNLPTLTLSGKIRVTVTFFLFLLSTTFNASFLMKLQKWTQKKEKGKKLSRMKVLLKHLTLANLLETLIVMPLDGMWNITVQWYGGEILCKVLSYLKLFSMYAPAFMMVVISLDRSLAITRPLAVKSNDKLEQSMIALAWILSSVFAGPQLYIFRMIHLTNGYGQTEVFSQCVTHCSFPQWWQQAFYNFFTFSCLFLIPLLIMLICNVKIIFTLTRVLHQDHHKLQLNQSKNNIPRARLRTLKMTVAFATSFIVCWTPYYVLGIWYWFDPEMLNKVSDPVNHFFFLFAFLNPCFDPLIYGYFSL
Experimental: Test Example 3. Rabbit GnRHr Inhibitory Activity Assay of the Present Compounds
This assay was used to determine the inhibition effect of the present compounds on the activity of rabbit GnRHr protein expressed by rabbit GnRHr/CHO stably transfected cell lines.
A mammalian expression vector containing the rabbit GnRHr gene was transferred into CHO cells by adding Lipofectamine® LTX reagent containing Plus™. Antibiotics were added the next day for screening to pick out the monoclonal cell lines.
The rabbit GnRHr/CHO stably transfected cell lines were inoculated in 96-well plates with an inoculation density of 25,000 cells/well. The culture medium was removed the next day, and loading buffer containing Fluo-4 dye was added to the plate (100 μL/well) and incubated for 30 minutes at 37° C. The plate was moved to room temperature and equilibrated for 10 minutes. Each compound was diluted with DMSO to seven concentration gradients of 100 μM, 10 μM, 1 μM, 0.1 μM, 0.01 μM, 0.001 μM, 0.0001 μM. Then, 1 μl of each gradient was added to each well and incubated for 10 minutes at room temperature. After automated addition of 50 μL of GnRH polypeptide stimulant solution, the value was immediately detected at 494/516n M by a microplate reader (flexstation 3). IC50 values of the compounds were calculated by software from different fluorescence signals at various corresponding concentrations.
The inhibitory activity of the present compounds on rabbit GnRHr was determined by the above assay, and IC50 values are shown in Table 1.

[1] = Rabbit pharmacokinetics assay; assay type: in vivo, New Zealand rabbits; conditions: for AUC: read-out: Area under curve AUC; for half-life: read-out: Half-life T1/2 (converted); for MRT: read-out: Residence time MRT
Experimental: Test Example 5. Rabbit Pharmacokinetics Assay of Example 11 of the Present Invention
Rabbits were used as test animals. The plasma concentrations at various times were determined by LC/MS/MS after intragastric administration of the compound of Example 11, and intravenous administration of the compound of Example 11 to rabbits. The pharmacokinetic behavior of the present compound in rabbits was studied, and the pharmacokinetic features were evaluated.
Six (6) healthy New Zealand Rabbits (female) were evenly designated into 2 groups. The animals were purchased from Jie Sijie Corp. Ltd.
An appropriate amount of sample was weighed, and added with 0.5% CMC-Na to form […] suspension upon ultrasonic treatment.
Appropriate amounts of drugs were weighed, and dissolved with 1 ml DMSO and 1 ml of Tween 80. Saline solution was added to the final volume.
Six (6) healthy New Zealand rabbits (female) were evenly designated into 2 groups, and administered by oral gavage or intravenous injection (i.v.) (oral gavage at a dosage of 30 mg/kg with an administration volume of 5 ml/kg, and i.v. at a dosage of 5 mg/kg with an administration volume of 2 ml/kg) after fasting overnight.
0.2 ml of blood was sampled before and 5 minutes, 0.25, 0.5, 1, 2, 4, 8, 11, 24 hours after intravenous administration, collected in a heparinized test tube, and centrifuged at 3500 rpm for 10 minutes to separate the plasma, which was stored at −20° C. Blood was sampled before, and 0.5, 1, 2, 4, 6, 8, 11, and 24 hours after oral administration, and treated the same as that of the intravenous administration group. The content of the test compound in the plasma of rabbits after administration of the compound by oral gavage and intravenous injection was determined by LC/MS/MS.

[2] = system: rabbit endometriosis model; experiment: In vivo pharmacodynamics test in rabbit endometriosis model
Experimental: (§1) Fifteen (15) healthy New Zealand rabbits (female) were evenly designated into 3 groups.
(§2) Rabbits were adaptive fed and quarantined for seven days, and subcutaneously injected with 30 μg/kg of estradiol benzoate once daily for two days before surgery. When the model was established, rabbits were anesthetized with 3% sodium pentobarbital, and laparotomized sterilely. Then, one side of the uterus was separated and ligated with the uterine mesorectum vessel. Then, a section of the uterus was cut off and put into a warm saline dish, and then dissected longitudinally and the myometrium and endometrium were separated. A section of endometrium (about 0.5 cm by0.5 cm) was seamed to the abdominal wall rich in blood vessels with the intimal surface facing toward the abdominal cavity. Three weeks after endometrium planting, the rabbits were laparotomized to check graft intimal size. […] Each group was administered by oral gavage once a day in a volume of 5 ml/kg, continuously for 28 days after successful modeling. Ultimately, the rabbit was weighed and the volume of ectopic endometrium was measured to evaluate the effect of the present compound on the endometrial activity.

[3] = as above; conditions: female, New Zealand, rabbit, in vivo, po
Experimental: as §1, §2

[4] = Seven-day toxicokinetic evaluation in rats; design: species or system SD rats; conditions: rat, in vivo; for AUC(0-inf): AUC0-∞; for MRT inf: MRT0-∞
Experimental: Test Example 8. Seven-Day Toxicokinetic Evaluation of the Compound of Example 11 in Rats
SD rats were used as test animals. The plasma concentration at various times was determined by LC/MS/MS after administration of the compound of Example 11 (SHR147280) by oral gavage for 7 days. The compound toxicity in rodents was preliminarily assessed according to the potential toxicity reaction and severity level of the body.
Twenty-four (24) healthy adult SD rats (half female and half male) were evenly designated into 4 groups (6 for each group). The animals were purchased from Shanghai SLAC Laboratory Animal Corp. Ltd (laboratory animal production Certificate No. SCXK (HU) 2012-0002).
An appropriate amount of sample was accurately weighed, and added with some 0.5% CMC-Na to form an uniform suspension upon ultrasonicator grinding treatment, and then diluted to the final volume. The test sample solutions on day 1 and day 7 were kept for the determination of administration concentration of toxicokinetics.
Repeat oral doses were 80, 240, and 720 mg/kg, and administration concentrations were 8, 24, and 72 mg/ml respectively. The dosing volume was 10 ml/kg once daily for 7 days.
The blood was sampled on day 1 and day 7 after administration with sampling time before, and 1, 2, 4, 8 and 24 hours after oral administration on day 1, as well as before, and 1, 2, 4, 8, 24 and 48 hours after oral administration on day 7. The blood sample was collected in a heparinized test tube, and centrifuged to separate the plasma, which was stored at −20° C. The content of the test compound in the plasma of rats after administration of the compound by oral gavage was determined by LC/MS/MS.

[5] = female, New Zealand, plasma, intravenous injection 5 mg/kg
[6] = female, New Zealand, plasma, oral 30 mg/kg

## CONC(=O)Nc1ccc(-n2nc3c(c2CN(C)C)c(=O)n(-c2ccc(OC)nn2)c(=O)n3Cc2c(F)cccc2F)cc1 [Example 11, 1-(4-(7-(2,6-difluorobenzyl)-3-((dimethylamino)methyl)-5-(6-methoxypyridazin-3-yl)-4,6-dioxo-4,5,6,7-tetrahydro-2H-pyrazolo[3,4-d]pyrimidin-2-yl)phenyl)-3-methoxyurea]
Rabbit GnRHr
  IC50: 570 pM
[1]; [5]
  AUC: 3.41 ± 0.832 µg·h/mL
  half-life: 4.6 ± 2.7 h
  MRT: 2.39 ± 0.3 h
[1]; female, New Zealand, plasma, oral 30 mg/kg, read-out: Apparent volume of distribution Vz/F
  Vd/F: 10.7 ± 3.86 L/kg
[1]; [6]
  AUC: 19 ± 2.31 µg·h/mL
  half-life: 4.57 ± 1.06 h
  MRT: 3.94 ± 0.55 h
[1]; female, New Zealand, plasma, oral 30 mg/kg, read-out: Clearance rate CL/F
  CL/F: 26.6 ± 3.4 mL/min/kg
[1]; female, New Zealand, plasma, oral 30 mg/kg, read-out: Plasma concentration Cmax
  Cmax: 5040 ± 776 ng/mL
[1]; intravenous injection 5 mg/kg
  Apparent volume of distribution Vz/F: 10.948 ± 7.749 L/kg
  Clearance rate CL/F: 25.3 ± 5.5 mL/min/kg
[2]; 10 mg/kg oral once a day for 4 weeks
  inhibition for the ectopic endometrial volume: not obvious
[2]; 30 mg/kg oral once a day for 4 weeks, vs 0.5% CMC-Na control
  growth of ectopic endometrium: significantly inhibited
[3]
  NOAEL at 28 days: 30 mg/kg
[4]; both sexes, SD, po
  NOAEL at 7 days: 240 mg/kg
[4]; both, SD, po, 7 days
  lethal dose: 720 mg/kg
[4]; female, SD, 80 mg/kg
  CLz/F: 7.71 mL/min/kg
[4]; female, SD, 240 mg/kg
  CLz/F: 5.82 mL/min/kg
[4]; female, SD, po, 80 mg/kg
  AUC0-t: 282.074 µg·h/mL
  AUC0-∞: 313.468 µg·h/mL
  Cmax: 19550 ng/mL
  MRT0-∞: 9.23 h
  Vd/F: 2.09 L/kg
  AUC(0-inf): 174 µg·h/mL
  MRT inf: 5.82 h
[4]; female, SD, po, 80 mg/kg, AUC0-t
  AUC0-t: 173 µg·h/mL
[4]; female, SD, po, 80 mg/kg, Cmax
  Cmax: 17800 ng/mL
[4]; female, SD, po, 240 mg/kg
  AUC0-t: 790.873 µg·h/mL
  AUC0-∞: 840.45 µg·h/mL
  Cmax: 51150 ng/mL
  MRT0-∞: 7.97 h
  Vd/F: 2.87 L/kg
  t1/2: 4.26 h
  tmax: 6.0 h
  AUC(0-inf): 690 µg·h/mL
  MRT inf: 9.63 h
[4]; female, SD, po, 240 mg/kg, AUC0-t
  AUC0-t: 639 µg·h/mL
[4]; female, SD, po, 240 mg/kg, Cmax
  Cmax: 41500 ng/mL
[4]; female, SD, po, 240 mg/kg, t1/2
  half-life: 5.73 h
[4]; female, SD, po, 240 mg/kg, tmax
  tmax: 8 h
[4]; female, SD, po, 720 mg/kg
  AUC0-t: 2838.65 µg·h/mL
  Cmax: 138000 ng/mL
  tmax: 24.0 h
[4]; female, SD, po, 720 mg/kg, AUC0-t
  AUC0-t: 1550 µg·h/mL
[4]; female, SD, po, 720 mg/kg, Cmax
  Cmax: 69300 ng/mL
[4]; female, SD, po, 720 mg/kg, tmax
  tmax: 16 h
[4]; po
  potential toxic target organs: marrow hematopoietic system, thymus, heart, liver, lung, spleen, adrenal gland, ovary, and digestion system
